In patent publication US7235379B2, “Method and medium for the detection/identification of microorgranisms with esterase activity” (Bio Merieux, priority 2000, dated 2007):
Values joined by “and” are separate entries in the source; they are usually repeats but may differ in a detail not shown here. Equal entries are not always repeated. Structures can show the parent of a compound that is named as a salt. Where two headings read alike, the source gives them in different places.

What was measured:
Salmonella spp. 017 [1] = test system: Salmonella spp. 017
Procedure: (§1) The esterase substrate tested is 5-bromo-3-indolyl nonanoate. A 40 g/l stock solution of substrate is prepared in a mixture of 40% dimethyl sulfoxide and 60% Tween 20. A sufficient volume is added to a supercooled MacConkey medium (without neutral red) to give a substrate concentration of 500 mg/l.
(§2) Microorganisms originating from the Applicant's collection were inoculated onto this medium from a 0.5 McFarland suspension by isolation in three quadrants. The dishes were incubated at 37° C. for 48 hours. The colonies formed were examined visually after 24 and 48 hours of incubation. The coloration of these colonies and the intensity of this coloration were noted.
(§3) Note: In the above Examples, the numbers following the strains correspond to the number of each strain referenced in the Applicant's collection. The intensity of coloration corresponds to an arbitrary scale defined as follows: […]

[2] = test system: Salmonella paratyphi A 006
Procedure: as §1, §2, §3

Salmonella typhi 118 = test system: Salmonella typhi 118
Procedure: as §1, §2, §3

Enterobacter cloacae 086 [3] = assay: Ex.2 colony coloration, 5-bromo-3-indolyl nonanoate, methanol/bile salts, MacConkey; type: cell-based; for intensity of coloration: key: 0: no activity; 0.1: trace of coloration; 0.5: very pale coloration; 1: distinct coloration of low intensity; 2: clear coloration of medium intensity; 3: intense coloration; 4: very intense coloration
Procedure: (§4) The esterase substrate tested is 5-bromo-3-indolyl nonanoate. A 25 g/l stock solution of substrate is prepared in methanol to which 5 g/l of bile salts have been added. A sufficient volume is added to a supercooled MacConkey medium (without neutral red) to give a substrate concentration of 500 mg/l.

Enterobacter cloacae 086 [4] = assay: Ex.1 colony coloration, 5-bromo-3-indolyl nonanoate, DMSO/Tween 20, MacConkey; type: cell-based; for intensity of coloration: key: 0: no activity; 0.1: trace of coloration; 0.5: very pale coloration; 1: distinct coloration of low intensity; 2: clear coloration of medium intensity; 3: intense coloration; 4: very intense coloration
[5] = test system: bacterial strains exhibiting an esterase activity; conditions: between 2 and 16 ml/l, more precisely between 4 and 8 ml/l
Procedure: as §1, §2

Candida albicans 033 = assay: Ex.3 colony coloration, 5-bromo-4-chloro-3-indolyl nonanoate 250 mg/l, DMSO/Tween 20; type: cell-based; note: key: 0: no activity; 0.1: trace of coloration; 0.5: very pale coloration; 1: distinct coloration of low intensity; 2: clear coloration of medium intensity; 3: intense coloration; 4: very intense coloration
Procedure: (§5) The esterase substrate tested is 5-bromo-4-chloro-3-indolyl nonanoate. A 40 g/l stock solution of substrate is prepared in a mixture of 40% dimethyl sulfoxide and 60% Tween 20. A sufficient volume is added to a supercooled MacConkey medium (without neutral red) to give a substrate concentration of 250 mg/l.

Salmonella arizonae 018 = assay: Ex.4 colony coloration, 5-bromo-3-indolyl nonanoate, DMSO/Tween 20, MacConkey; type: cell-based; conditions: 8 ml/l Tergitol 4
[6] = test system: Listeria monocytogenes 079; assay: Ex.3 colony coloration, 5-bromo-4-chloro-3-indolyl nonanoate 250 mg/l, DMSO/Tween 20; type: cell-based; note: key: 0: no activity; 0.1: trace of coloration; 0.5: very pale coloration; 1: distinct coloration of low intensity; 2: clear coloration of medium intensity; 3: intense coloration; 4: very intense coloration
Procedure: as §5

Salmonella spp. 017 [7] = assay: Ex.4 colony coloration, 5-bromo-3-indolyl nonanoate, DMSO/Tween 20, MacConkey; type: cell-based; conditions: 8 ml/l Tergitol 4
Procedure: This medium is then separated into eight portions. […] Microorganisms originating from the Applicant's collection were inoculated onto this medium from a 0.5 McFarland suspension by isolation in three quadrants. The dishes were incubated at 37° C. for 48 hours. The colonies formed were examined visually after 24 and 48 hours of incubation. The coloration of these colonies and the intensity of this coloration were noted.

[8] = test system: Pseudomonas aeruginosa 165; assay: Ex.2 colony coloration, 5-bromo-3-indolyl nonanoate, methanol/bile salts, MacConkey; type: cell-based
Procedure: as §4

[9] = test system: Salmonella enteritidis 006; assay: Ex.4 colony coloration, 5-bromo-3-indolyl nonanoate, DMSO/Tween 20, MacConkey; type: cell-based; conditions: 8 ml/l Tergitol 4
Serratia marcescens 038 = assay: Ex.2 colony coloration, 5-bromo-3-indolyl nonanoate, methanol/bile salts, MacConkey; type: cell-based
Procedure: as §4

In the case of CCCCC(CC)CCC(CC(C)C)OS(=O)(=O)O (centres unmarked) [Tergitol 4, 7-ethyl-2-methyl-4-undecanoate hydrogensulfate or its sodium salt], the color (Salmonella spp. 017 [1]; 2 ml/l, 24 h) is reported as “gray”, the intensity of coloration (Salmonella spp. 017 [1]; 2 ml/l, 24 h) is reported as 1 and the color (Salmonella spp. 017 [1]; 2 ml/l, 48 h) is reported as “gray”. For the same compound, the intensity of coloration (Salmonella spp. 017 [1]; 2 ml/l, 48 h) was 3, the color (Salmonella spp. 017 [1]; 4 ml/l, 24 h) was “gray” and the intensity of coloration (Salmonella spp. 017 [1]; 4 ml/l, 24 h) was 1.5. For the same compound, the color (Salmonella spp. 017 [1]; 4 ml/l, 48 h) was “gray”, the intensity of coloration (Salmonella spp. 017 [1]; 4 ml/l, 48 h) was 3.5 and the color (Salmonella spp. 017 [1]; 8 ml/l, 24 h) was “gray”. The intensity of coloration (Salmonella spp. 017 [1]; 8 ml/l, 24 h) was 2, the color (Salmonella spp. 017 [1]; 8 ml/l, 48 h) was “gray” and the intensity of coloration (Salmonella spp. 017 [1]; 8 ml/l, 48 h) was 3. The color (Salmonella spp. 017 [1]; 16 ml/l, 24 h) was “gray”, the intensity of coloration (Salmonella spp. 017 [1]; 16 ml/l, 24 h) was 1 and the color (Salmonella spp. 017 [1]; 16 ml/l, 48 h) was “gray”. The intensity of coloration (Salmonella spp. 017 [1]; 16 ml/l, 48 h) was 2, the color ([2]; 2 ml/l, 24 h) was “gray” and the intensity of coloration ([2]; 2 ml/l, 24 h) was 2. The color ([2]; 2 ml/l, 48 h) was “gray”, the intensity of coloration ([2]; 2 ml/l, 48 h) was 2 and the color ([2]; 4 ml/l, 24 h) was “gray”. For the same compound, the intensity of coloration ([2]; 4 ml/l, 24 h) was 2, the color ([2]; 4 ml/l, 48 h) was “gray” and the intensity of coloration ([2]; 4 ml/l, 48 h) was 2.5. For the same compound, the color ([2]; 8 ml/l, 24 h) was “gray”, the intensity of coloration ([2]; 8 ml/l, 24 h) was 3 and the color ([2]; 8 ml/l, 48 h) was “gray”. For the same compound, the intensity of coloration ([2]; 8 ml/l, 48 h) was 3, the color ([2]; 16 ml/l, 24 h) was “gray” and the intensity of coloration ([2]; 16 ml/l, 24 h) was 2. The color ([2]; 16 ml/l, 48 h) was “gray”, the intensity of coloration ([2]; 16 ml/l, 48 h) was 2 and the color (Salmonella typhi 118) was “gray”. For the same compound, the intensity of coloration (Salmonella typhi 118; sodium salt) was 3 and 2 and 3.5, the color (Enterobacter cloacae 086 [3]; 2 ml/l, 24 h) was “gray” and the intensity of coloration (Enterobacter cloacae 086 [3]; 2 ml/l, 24 h) was 0.5. For the same compound, the color (Enterobacter cloacae 086 [3]; 2 ml/l, 48 h) was “gray”, the intensity of coloration (Enterobacter cloacae 086 [3]; 2 ml/l, 48 h) was 2 and the color (Enterobacter cloacae 086 [3]; 4 ml/l, 24 h) was “gray”. For the same compound, the intensity of coloration (Enterobacter cloacae 086 [3]; 4 ml/l, 24 h) was 1, the color (Enterobacter cloacae 086 [3]; 4 ml/l, 48 h) was “gray” and the intensity of coloration (Enterobacter cloacae 086 [3]; 4 ml/l, 48 h) was 3. For the same compound, the color (Enterobacter cloacae 086 [3]; 8 ml/l, 24 h) was “gray”, the intensity of coloration (Enterobacter cloacae 086 [3]; 8 ml/l, 24 h) was 0.5 and the color (Enterobacter cloacae 086 [3]; 8 ml/l, 48 h) was “gray”. The intensity of coloration (Enterobacter cloacae 086 [3]; 8 ml/l, 48 h) was 1, the color (Enterobacter cloacae 086 [3]; 16 ml/l, 24 h) was “gray” and the intensity of coloration (Enterobacter cloacae 086 [3]; 16 ml/l, 24 h) was 0.5. The color (Enterobacter cloacae 086 [3]; 16 ml/l, 48 h) was “gray”, the intensity of coloration (Enterobacter cloacae 086 [3]; 16 ml/l, 48 h) was 1 and the color (Enterobacter cloacae 086 [4]; 2 ml/l, 24 h) was “gray”. For the same compound, the intensity of coloration (Enterobacter cloacae 086 [4]; 2 ml/l, 24 h) was 0.5, the color (Enterobacter cloacae 086 [4]; 2 ml/l, 48 h) was “gray” and the intensity of coloration (Enterobacter cloacae 086 [4]; 2 ml/l, 48 h) was 2. For the same compound, the color (Enterobacter cloacae 086 [4]; 4 ml/l, 24 h) was “gray”, the intensity of coloration (Enterobacter cloacae 086 [4]; 4 ml/l, 24 h) was 1 and the color (Enterobacter cloacae 086 [4]; 4 ml/l, 48 h) was “gray”. For the same compound, the intensity of coloration (Enterobacter cloacae 086 [4]; 4 ml/l, 48 h) was 3, the color (Enterobacter cloacae 086 [4]; 8 ml/l, 24 h) was “gray” and the intensity of coloration (Enterobacter cloacae 086 [4]; 8 ml/l, 24 h) was 0.5. The color (Enterobacter cloacae 086 [4]; 8 ml/l, 48 h) was “gray”, the intensity of coloration (Enterobacter cloacae 086 [4]; 8 ml/l, 48 h) was 1 and the color (Enterobacter cloacae 086 [4]; 16 ml/l, 24 h) was “gray”. For the same compound, the intensity of coloration (Enterobacter cloacae 086 [4]; 16 ml/l, 24 h) was 0.5, the color (Enterobacter cloacae 086 [4]; 16 ml/l, 48 h) was “gray” and the intensity of coloration (Enterobacter cloacae 086 [4]; 16 ml/l, 48 h) was 1. The “effect on intensity of coloration” value [5] was “significantly increases the intensity of coloration”, the intensity of coloration (Candida albicans 033; 0.001 ml/l, 24 h) was 0.5 and the intensity of coloration (Candida albicans 033; 0.001 ml/l, 48 h) was 3. It also gave an intensity of coloration (Candida albicans 033; 0.01 ml/l, 24 h) of 0.5, an intensity of coloration (Candida albicans 033; 0.01 ml/l, 48 h) of 3 and an intensity of coloration (Candida albicans 033; 0.1 ml/l, 24 h) of 0.5. For the same compound, the intensity of coloration (Candida albicans 033; 0.1 ml/l, 48 h) was 3, the intensity of coloration (Candida albicans 033; 1 ml/l (1st col), 24 h) was 0.5 and the intensity of coloration (Candida albicans 033; 1 ml/l (1st col), 48 h) was 3. The intensity of coloration (Candida albicans 033; 1 ml/l (2nd col), 24 h) was 0.5, the intensity of coloration (Candida albicans 033; 1 ml/l (2nd col), 48 h) was 3 and the color (Salmonella arizonae 018; 24 h) was “gray”. For the same compound, the intensity of coloration (Salmonella arizonae 018; 24 h) was 3.5, the color (Salmonella arizonae 018; 48 h) was “gray” and the intensity of coloration (Salmonella arizonae 018; 48 h) was 3.5. For the same compound, the intensity of coloration ([6]; 0.001 ml/l, 24 h) was 2, the intensity of coloration ([6]; 0.001 ml/l, 48 h) was 3 and the intensity of coloration ([6]; 0.01 ml/l, 24 h) was 3. The intensity of coloration ([6]; 0.01 ml/l, 48 h) was 3, the intensity of coloration ([6]; 0.1 ml/l, 24 h) was 2 and the intensity of coloration ([6]; 0.1 ml/l, 48 h) was 3. For the same compound, the intensity of coloration ([6]; 1 ml/l (1st col), 24 h) was 2, the intensity of coloration ([6]; 1 ml/l (1st col), 48 h) was 3 and the intensity of coloration ([6]; 1 ml/l (2nd col), 24 h) was 2. The intensity of coloration ([6]; 1 ml/l (2nd col), 48 h) was 3, the color (Salmonella spp. 017 [7]; 24 h) was “gray” and the intensity of coloration (Salmonella spp. 017 [7]; 24 h) was 2.5. The color (Salmonella spp. 017 [7]; 48 h) was “gray”, the intensity of coloration (Salmonella spp. 017 [7]; 48 h) was 3.5 and the color ([8]; 2 ml/l, 24 h) was “gray”. The intensity of coloration ([8]; 2 ml/l, 24 h) was 3.5, the color ([8]; 2 ml/l, 48 h) was “gray” and the intensity of coloration ([8]; 2 ml/l, 48 h) was 3.5. For the same compound, the color ([8]; 4 ml/l, 24 h) was “gray”, the intensity of coloration ([8]; 4 ml/l, 24 h) was 4 and the color ([8]; 4 ml/l, 48 h) was “gray”. For the same compound, the intensity of coloration ([8]; 4 ml/l, 48 h) was 4, the color ([8]; 8 ml/l, 24 h) was “gray” and the intensity of coloration ([8]; 8 ml/l, 24 h) was 4. The color ([8]; 8 ml/l, 48 h) was “gray”, the intensity of coloration ([8]; 8 ml/l, 48 h) was 4 and the color ([8]; 16 ml/l, 24 h) was “gray”. For the same compound, the intensity of coloration ([8]; 16 ml/l, 24 h) was 4, the color ([8]; 16 ml/l, 48 h) was “gray” and the intensity of coloration ([8]; 16 ml/l, 48 h) was 4. The color ([9]; 24 h) was “gray”, the intensity of coloration ([9]; 24 h) was 3 and the color ([9]; 48 h) was “gray”. The intensity of coloration ([9]; 48 h) was 3, the color (Serratia marcescens 038; 2 ml/l, 24 h) was “gray” and the intensity of coloration (Serratia marcescens 038; 2 ml/l, 24 h) was 2. The color (Serratia marcescens 038; 2 ml/l, 48 h) was “gray”, the intensity of coloration (Serratia marcescens 038; 2 ml/l, 48 h) was 3 and the color (Serratia marcescens 038; 4 ml/l, 24 h) was “gray”. The intensity of coloration (Serratia marcescens 038; 4 ml/l, 24 h) was 2, the color (Serratia marcescens 038; 4 ml/l, 48 h) was “gray” and the intensity of coloration (Serratia marcescens 038; 4 ml/l, 48 h) was 4. For the same compound, the color (Serratia marcescens 038; 8 ml/l, 24 h) was “gray”, the intensity of coloration (Serratia marcescens 038; 8 ml/l, 24 h) was 2 and the color (Serratia marcescens 038; 8 ml/l, 48 h) was “gray”. The intensity of coloration (Serratia marcescens 038; 8 ml/l, 48 h) was 4, the color (Serratia marcescens 038; 16 ml/l, 24 h) was “gray” and the intensity of coloration (Serratia marcescens 038; 16 ml/l, 24 h) was 2. The color (Serratia marcescens 038; 16 ml/l, 48 h) was “gray” and the intensity of coloration (Serratia marcescens 038; 16 ml/l, 48 h) was 4.
